IC50, selectivity ratio and CC50 data for 20 molecules are collected here from ChEMBL document CHEMBL4837195, “Palladium-mediated synthesis and biological evaluation of C-10b substituted Dihydropyrrolo[1,2-b]isoquinolines as antileishmanial agents” (Eur J Med Chem, 2021).

Data set [1] deals with Leishmania amazonensis. The experiment in a line: Antileishmanial activity against Leishmania […] MHOM/IN/80/DD8 promastigotes assessed as reduction in parasites for 48 hrs by resazurin dye based assay. The note with it: MHOM/IN/80/DD8, 48 h. The class given is functional, organism-based. Background: The colour change of resazurin is a common sign of viable cells or microbes.

Data set [2] in a line: Selectivity index, ratio of CC50 for mouse J774 cells to IC50 for antileishmanial activity against Leishmania […] MHOM/IN/80/DD8 promastigotes by resazurin dye based assay. The format is toxicity. The note with it: read-out: Selectivity Index.
Data set [3] relates to Leishmania donovani. The experiment in a line: Antileishmanial activity against Leishmania donovani MHOM/Br/79/Maria promastigotes assessed as reduction in parasites for 48 hrs by resazurin dye based assay. The format is functional, organism-based.
A short description of data set [4]: Selectivity index, ratio of CC50 for mouse J774 cells to IC50 for antileishmanial activity against Leishmania donovani MHOM/Br/79/Maria promastigotes by resazurin dye based assay. The note with it: read-out: Selectivity Index. The format is toxicity.
Another data set relates to J774. The experiment in a line: Cytotoxicity against mouse J774 cells assessed as reduction in cell viability after 24 hrs by resazurin dye based assay. The class given is functional.
Data set [5] concerns Leishmania amazonensis. The experiment in a line: Antileishmanial activity against Leishmania […] MHOM/IN/80/DD8 amastigotes infected in mouse J774 cells assessed as reduction in parasites for 48 hrs by resazurin dye based assay. The format is functional, organism-based. The note with it: MHOM/IN/80/DD8, J774, 48 h.
A short description of data set [6]: Selectivity index, ratio of CC50 for mouse J774 cells to IC50 for antileishmanial activity against Leishmania […] MHOM/IN/80/DD8 amastigotes by resazurin dye based assay. The format is toxicity. The note with it: read-out: Selectivity Index.
Data set [7] has as its system Leishmania donovani. The experiment in a line: Antileishmanial activity against Leishmania donovani MHOM/Br/79/Maria amastigotes infected in mouse J774 cells assessed as reduction in parasites for 48 hrs by resazurin dye based assay. The format is functional, organism-based. The note with it: J774, 48 h.
A short description of data set [8]: Selectivity index, ratio of CC50 for mouse J774 cells to IC50 for antileishmanial activity against Leishmania donovani MHOM/Br/79/Maria amastigotes by resazurin dye based assay. The note with it: read-out: Selectivity Index. The format is toxicity.

For `CC1(Cc2ccc([N+](=O)[O-])cc2)c2ccccc2Cn2cccc21` (stereo not drawn), the IC50 – broadly, the concentration that inhibits the measured activity by half – stood at 157 µM with Leishmania amazonensis [1] and 159 µM in the data set with Leishmania donovani [3]. Moreover, the selectivity ratio was above 2 in [2] and above 1.97 in data set [4]. Moreover, the CC50 (as a rule, the concentration at which the toxic effect on the cells reaches its halfway point) in the data set with J774 is at least 314 µM.

Take `COc1cc2c(cc1OC)C(C)(Cc1cc(C(F)(F)F)cc(C(F)(F)F)c1)c1cccn1C2` (stereo not drawn): the results for the IC50 in the data set with Leishmania amazonensis [1] and in the data set with Leishmania donovani [3] were 39.6 µM and 111 µM, respectively. The selectivity ratio in data set [2] is 1.18; in data set [4], 0.42. The CC50 in the data set with J774 is 46.8 µM.

As to `COc1cc2c(cc1OC)C(C)(CC#N)c1cccn1C2` (stereo not drawn), the IC50 in the data set on Leishmania amazonensis [1] was 309 µM; in the data set with Leishmania donovani [3] it was 226 µM. For the same molecule, the selectivity ratio in data set [2] is above 1.14; in data set [4], above 1.57. Moreover, in the data set with J774, the CC50 is at least 354 µM.

`COc1cc2c(cc1OC)C(C)(C/C=C/c1ccccc1)c1cccn1C2` (stereo not drawn): the IC50 stood at 12.2 µM in the data set with Leishmania amazonensis [1], 33.7 µM with Leishmania donovani [3], 69.3 µM in the data set with Leishmania amazonensis [5] and 16.7 µM with Leishmania donovani [7]. The selectivity ratio in data set [2] was above 23; in data set [4], above 8.27; in [6], above 4.02; in data set [8], above 16.6. The CC50 in the data set on J774 is at least 278 µM.

For the molecule `C=CCC1(C)c2cc(OC)c(OC)cc2Cn2cccc21` (stereo not drawn), the IC50 is 23.3 µM in the data set on Leishmania amazonensis [1], 124 µM in the data set with Leishmania donovani [3], 43.5 µM in the data set with Leishmania amazonensis [5] and 256 µM in the data set on Leishmania donovani [7]. Also, the selectivity ratio in data set [2] was above 15.2; in [4], above 2.84; in [6] it was above 8.1; in data set [8], above 1.38. Also, the CC50 in the data set with J774 is at least 353 µM.

For `CC1(Cc2ccc([N+](=O)[O-])cc2)c2cc3c(cc2Cn2cccc21)OCO3` (stereo not drawn), the IC50 in the data set with Leishmania amazonensis [1] came out at 8 µM; in the data set on Leishmania donovani [3], 30.4 µM; in the data set with Leishmania amazonensis [5] it was 77.1 µM; in the data set on Leishmania donovani [7] it was 68.7 µM. For the same molecule, the selectivity ratio is above 34.5 in data set [2], above 9.09 in [4], above 3.58 in [6] and above 4.02 in data set [8]. Further, the CC50 in the data set with J774 was at least 276 µM.

Regarding `COc1ccc(CC2(C)c3cc(OC)c(OC)cc3Cn3cccc32)cc1` (stereo not drawn), the IC50 in the data set on Leishmania amazonensis [1] came out at 26.4 µM; in the data set with Leishmania donovani [3], 47.4 µM; in the data set with Leishmania amazonensis [5], 51.6 µM; with Leishmania donovani [7] it was 45 µM. Further, the selectivity ratio was above 10.4 in data set [2], above 5.8 in data set [4], above 5.34 in [6] and above 6.12 in [8]. For the same molecule, the CC50 in the data set with J774 was at least 275 µM.

Regarding `COc1cc2c(cc1OCc1ccccc1)Cn1cccc1C2(C)CC#N` (stereo not drawn), the IC50 was 24.8 µM in the data set with Leishmania amazonensis [1] and 34.4 µM with Leishmania donovani [3]. The selectivity ratio in data set [2] came out at 7.86; in data set [4], 5.68. For the same molecule, the CC50 with J774 worked out at 195 µM.

Consider `COc1cc2c(cc1OC)C(C)(Cc1cc3ccc4cccc5ccc(c1)c3c45)c1cccn1C2` (stereo not drawn), for which the IC50 was determined as 36.7 µM with Leishmania amazonensis [1] and 86 µM in the data set with Leishmania donovani [3]. The selectivity ratio was above 5.95 in [2] and above 2.54 in data set [4]. For the same molecule, the CC50 in the data set with J774 was at least 219 µM.

As for `CC1(CC#N)c2cc3c(cc2Cn2cccc21)OCO3` (stereo not drawn), the figures for the IC50 in the data set with Leishmania amazonensis [1] and in the data set with Leishmania donovani [3] were 77.4 µM and 120 µM, respectively. Also, the figures for the selectivity ratio in [2] and in [4] were above 4.85 and above 3.13, respectively. Besides, the 50% cytotoxic concentration (CC50) in the data set with J774 is at least 376 µM.

For `COc1ccc2c(c1)Cn1cccc1C2(C)CC#N` (stereo not drawn), the figures for the IC50 in the data set on Leishmania amazonensis [1] and in the data set on Leishmania donovani [3] were 123 µM and 360 µM, respectively. In addition, the selectivity ratio was above 3.21 in data set [2] and above 1.1 in [4]. For the same molecule, the CC50 in the data set with J774 was at least 396 µM.

On to `COc1cc2c(cc1OC)C(Cc1ccc([N+](=O)[O-])cc1)(C(F)(F)F)c1cccn1C2` (stereo not drawn), for which the IC50 with Leishmania amazonensis [1] is 3.93 µM; in the data set with Leishmania donovani [3], 16.4 µM; in the data set with Leishmania amazonensis [5], 56.7 µM; with Leishmania donovani [7] it was 22.2 µM. The selectivity ratio was above 58.8 in [2], above 14.1 in data set [4], above 4.08 in data set [6] and above 10.4 in [8]. Besides, the CC50 in the data set on J774 is at least 231 µM.

Turning to `CC1(CC#N)c2ccc(OCc3ccccc3)cc2Cn2cccc21` (stereo not drawn), the results for the IC50 in the data set with Leishmania amazonensis [1], in the data set on Leishmania donovani [3] and with Leishmania donovani [7] were 15.8 µM, 60.2 µM and 44.8 µM, respectively. The selectivity ratio in data set [2] turned out to be 14; in [4], 3.69; in data set [8] it was 4.97. The CC50 with J774 amounted to 222 µM.

Consider `COc1ccc(CC2(C)c3cc(OC)c(OC)cc3Cn3cccc32)cc1OC` (stereo not drawn), for which the concentration for half-maximal inhibition (IC50) in the data set on Leishmania amazonensis [1] was determined as 3.3 µM; in the data set on Leishmania donovani [3], 38.3 µM; in the data set with Leishmania amazonensis [5], 60.8 µM; with Leishmania donovani [7], 46.3 µM. Besides, the selectivity ratio in [2] was above 77; in data set [4], above 6.63; in data set [6] it was above 4.18; in [8], above 5.49. For the same molecule, the CC50 in the data set with J774 is at least 254 µM.

Turning to `COc1cc2c(cc1OC)C(C)(Cc1ccc([N+](=O)[O-])cc1)c1cccn1C2` (stereo not drawn), the IC50 in the data set on Leishmania amazonensis [1] was 18 µM; with Leishmania donovani [3], 79.9 µM; in the data set on Leishmania amazonensis [5], 56.1 µM; in the data set with Leishmania donovani [7], 29.6 µM. The selectivity ratio is above 14.7 in [2], above 3.31 in [4], above 4.7 in data set [6] and above 8.92 in data set [8]. For the same molecule, the CC50 with J774 is at least 264 µM.

Turning to `COc1ccc2c(c1OC)Cn1cccc1C2(C)CC#N` (stereo not drawn), the half-maximal inhibitory concentration (IC50) with Leishmania amazonensis [1] amounted to 171 µM. In data set [2], the selectivity ratio was above 2.07. Moreover, the CC50 in the data set with J774 is at least 354 µM.

With `COc1ccc(OC)c2c1Cn1cccc1C2(C)CC#N` (stereo not drawn), the IC50 in the data set with Leishmania amazonensis [1] is 93.9 µM. Further, the selectivity ratio in [2] was above 3.77. In addition, the cytotoxic concentration (CC50) with J774 was at least 354 µM.

On to `CC1(CC#N)c2ccc(F)cc2Cn2cccc21` (stereo not drawn), for which the IC50 in the data set with Leishmania amazonensis [1] worked out at 96.5 µM; in the data set with Leishmania donovani [3] it was 192 µM. The values for the selectivity ratio in [2] and in data set [4] were above 4.31 and above 2.17, respectively. Also, in the data set on J774, the CC50 is at least 416 µM.

On to `COc1cc2c(cc1OC)C(C)(Cc1ccccc1)c1cccn1C2` (stereo not drawn), for which the IC50 with Leishmania amazonensis [1] worked out at 17.1 µM; with Leishmania donovani [3], 30.3 µM; in the data set with Leishmania amazonensis [5], 33.6 µM; with Leishmania donovani [7], 55 µM. Further, the selectivity ratio in data set [2] was above 17.5; in data set [4] it was above 10.1; in [6], above 8.93; in data set [8], above 5.45. For the same molecule, the CC50 in the data set with J774 was at least 300 µM.

Regarding `CCCCCCCCCCCCCCCCOP(=O)([O-])OCC[N+](C)(C)C` [MILTEFOSINE], the IC50 in the data set on Leishmania amazonensis [1] worked out at 30.7 µM; in the data set with Leishmania amazonensis [5], 47.6 µM; in the data set on Leishmania donovani [7], 0.37 µM. Further, the selectivity ratio worked out at 4.43 in data set [2], 906 in [4], 2.85 in [6] and 369 in data set [8]. In addition, the 50% cytotoxic concentration (CC50) in the data set with J774 was found to be 136 µM.
